{
  "source": "paper PMC2688463",
  "about": "(Journal of medicinal chemistry, 2008)",
  "key": {"[1]": {"system": "SK-OV-3 ovarian cancer cell line", "test": "Cell growth assay", "format": "cell-based, human"}, "[2]": {"molecular_target": "recombinant human XIAP BIR3 protein (Homo sapiens, UniProt P98170)", "sequence (P98170 241-356)": "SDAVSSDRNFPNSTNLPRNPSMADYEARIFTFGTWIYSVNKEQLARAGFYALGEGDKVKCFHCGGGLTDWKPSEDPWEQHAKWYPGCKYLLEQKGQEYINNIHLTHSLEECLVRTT", "test": "Cell-free caspase-9 functional assay", "format": "biochemical", "settings": "at concentrations as high as 100 μM"}, "[3]": {"system": "MDA-MB-231 breast cancer cell line", "test": "Cell growth assay", "format": "cell-based, human"}, "[4]": {"system": "MDA-MB-231 cell line", "test": "Apoptosis assay", "format": "cell-based, human", "settings": "100 nM, 48 hours"}},
  "data": [
    {"smiles": "C[C@H](O)C(=O)N[C@H]1CCCC[C@H]2CC[C@@H](C(=O)NC(c3ccccc3)c3ccccc3)N2C1=O", "note": "[Compound 24]", "values": [
      {"measurement": "times less potent than compound 25 in cell growth inhibition", "setting": "[1]", "value": "> 30", "unit": "times"},
      {"measurement": "restoration of caspase-9 activity", "setting": "[2]", "value": "no significant effect"},
      {"measurement": "times less potent than compound 25 in cell growth inhibition", "setting": "[3]", "value": "> 30", "unit": "times"}
    ]},
    {"smiles": "CC[C@H](N)C(=O)N[C@H]1CCCC[C@H]2CC[C@@H](C(=O)NC(c3ccccc3)c3ccccc3)N2C1=O", "note": "[Compound 17, (3S,6S,11S)-6-((S)-2-Amino-butyrylamino)-5-oxo-decahydro-pyrrolo[1,2-α]azocine-3-carboxylic acid benzhydryl-amide]", "values": [
      {"measurement": "cellular activity (cell growth inhibition)", "setting": "[1]", "value": "weak cellular activity"},
      {"measurement": "cellular activity (cell growth inhibition)", "setting": "[3]", "value": "weak cellular activity"}
    ]},
    {"smiles": "CN[C@@H](C)C(=O)N[C@H]1CCCC[C@H]2CC[C@@H](C(=O)NC(c3ccccc3)c3ccccc3)N2C1=O", "note": "[Compound 20, (3S,6S,11S)-6-((S)-2-Methylamino-propionylamino)-5-oxo-decahydro-pyrrolo[1,2-α]azocine-3-carboxylic acid benzhydryl-amide]", "values": [
      {"measurement": "induction of apoptosis", "setting": "[4]", "value": "robust apoptosis"}
    ]},
    {"smiles": "CC[C@H](NC)C(=O)N[C@H]1CCCC[C@H]2CC[C@@H](C(=O)NC(c3ccccc3)c3ccccc3)N2C1=O", "note": "[Compound 21, (3S,6S,11S)-6-((S)-2-Methylamino-butyrylamino)-5-oxo-decahydro-pyrrolo[1,2-α]azocine-3-carboxylic acid benzhydryl-amide]", "values": [
      {"measurement": "induction of apoptosis", "setting": "[4]", "value": "robust apoptosis"}
    ]}
  ]
}
